Test results as given in US20250114460A1, “NOVEL PLK1 DEGRADATION INDUCING COMPOUND” (UPPTHERA, INC., priority 2021, published 2025).

Legend:
Assay type in all cases: cell-based
NCI-H526 cell line = assay: Cell viability assay for H526 cell (EZ-Cytox); conditions: Homo sapiens, NCI-H526, 120 h; H526 cells, 5 days, 3000 nM to 0.46 nM
Summary of the method: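 NCI-H526 cells were exposed to compound in CO2 incubator culture for 5 days. Viability was read by EZ-Cytox absorbance at 450 nm after 3 min shaking, giving IC50 values.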

PLK1 = target: T1, PLK1 (Homo sapiens, UniProt P53350); assay: Luciferase assay for PLK1 in HeLa LgBit (Plk1-HiBit KI) cell line; conditions: 300 nM compound, luminescence after 9 hours
T1 construct: endogenous in cells; host or cells: HeLa LgBit (Plk1-HiBit KI): HeLa stably expressing LgBit, with a CRISPR/Cas9 knock-in of HiBit at the endogenous PLK1 locus
Summary of the method: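 HeLa cells stably expressing LgBit, with HiBit knocked in at the C-terminus of endogenous Plk1, released from a 24 h 2 mM thymidine block and grown 18 h. Endurazine added, then compound at 300 nM; luminescence tracked in real time, expressed as ratio to DMSO.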

MRC-5 cell line = assay: Cell viability assay for MRC-5 cell line (EZ-Cytox); conditions: Homo sapiens, MRC5, 120 h; MRC-5 normal cell line, 5 days, 10000 nM to 1.52 nM; N.D. = no cytotoxicity until 10 μM; read-out: Activity: IC50 value of Exemplary Compound to MRC-5 cell line
Procedure: 4. Cell Viability Assay for MRC-5 Cell Line
(1) Culture of MRC-5 Cell Line
Passage of cultured cells was maintained within P15.
(2) Treatment of Compounds of the Present Invention
Then, it was cultured in 37° C.
(3) Cytotoxicity Experiment
CO2 incubator for 4 hours.

T1 sequence (P53350 whole entry): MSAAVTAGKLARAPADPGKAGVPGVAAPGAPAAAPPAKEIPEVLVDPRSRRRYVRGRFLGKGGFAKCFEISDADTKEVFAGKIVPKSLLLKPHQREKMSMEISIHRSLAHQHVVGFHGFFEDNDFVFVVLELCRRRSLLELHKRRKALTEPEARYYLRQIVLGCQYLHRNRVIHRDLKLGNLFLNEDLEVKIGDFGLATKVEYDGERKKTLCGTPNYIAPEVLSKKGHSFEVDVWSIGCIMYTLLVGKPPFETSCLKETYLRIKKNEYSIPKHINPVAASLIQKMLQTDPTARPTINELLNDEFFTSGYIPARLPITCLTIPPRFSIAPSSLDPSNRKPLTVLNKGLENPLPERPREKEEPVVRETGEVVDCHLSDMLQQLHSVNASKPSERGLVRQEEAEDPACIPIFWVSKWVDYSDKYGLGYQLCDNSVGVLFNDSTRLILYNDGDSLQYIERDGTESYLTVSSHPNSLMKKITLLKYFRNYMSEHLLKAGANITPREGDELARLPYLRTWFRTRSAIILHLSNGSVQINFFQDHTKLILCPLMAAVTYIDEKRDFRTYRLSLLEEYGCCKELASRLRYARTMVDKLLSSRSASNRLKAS

Compound: COc1cc(C(=O)NN2CCC(N3CC4(CCN(c5ccc6c(c5)CN(C5CCC(=O)NC5=O)C6=O)CC4)C3)CC2)ccc1Nc1ncc2c(n1)N(C(C)C)CC(F)(F)C(=O)N2C (stereo not drawn) [Compound 219, 4-((7,7-difluoro-9-isopropyl-5-methyl-6-oxo-6,7,8,9-tetrahydro-5H-pyrimido[4,5-b][1,4]diazepin-2-yl)amino)-N-(4-(7-(2-(2,6-dioxopiperidin-3-yl)-1-oxoisoindolin-5-yl)-2,7-diazaspiro[3.5]nonan-2-yl)piperidin-1-yl)-3-methoxybenzamide]
- IC50 (NCI-H526 cell line): < 0.03 µM
- Activity: ratio of the luminescense value of each Exemplary Compound treatment group to DMSO treatment group (PLK1): ++ (++<0.6)
- IC50 (MRC-5 cell line): 13 µM
